≈ marks a conversion by molar mass, not a printed value.
What was measured:
Type in all cases: cell-based
[1] = system: C. albicans SC5314; assay: Minimal inhibitory and fungicidal concentrations (broth microdilution, CLSI M27-A3 modified); conditions: Candida albicans, 28 °C
Protocol: (§1) Experiments were performed according to the Clinical and Laboratory Standards Institute (2008), 3rd ed. M27-A3 [51], with modifications described previously. Briefly, MICs were determined by serially diluting ILs in YPD medium in sterile 96-well plates (Sarstedt) and inoculating with fungal suspensions (final OD600 per well = 0.01). After incubation (48 h; 28 °C), the OD600 was measured (ASYS UVM 340 Biogenet). […] Each well was then replated on YPD agar and incubated for 5 days at 28 °C.

[2] = system: C. glabrata ATCC90030; assay: as above; conditions: Nakaseomyces glabratus, 28 °C
Protocol: as §1

[3] = system: C. parapsilosis CBS10947; assay: as above; conditions: Lodderomyces parapsilosis, 28 °C
Protocol: as §1

[4] = system: C. krusei ATCC6258; assay: as above; conditions: Pichia kudriavzevii, 28 °C
Protocol: as §1

[5] = system: C. krusei; assay: Detachment of adherent cells from polystyrene (crystal violet); conditions: C. krusei on polystyrene, 2 h treatment; highest concentration (4 × MIC)
Protocol: (§2) Thus, for the evaluation of ILs on fungal adhesion, higher concentrations were used, corresponding to 1, 2 and 4 times the MIC90 values (Figure 1).
(§3) Figure 1 Detachment of adherent Candida spp. cells after 2 h incubation on polystyrene surfaces by ionic liquids (ILs) (A) or amphotericin B (AMB) (B) (means ± SD; n = 3). Results are presented as percentage of adherent cells relative to untreated controls (100% adhesion). Statistical analysis of detachment at each concentration was performed towards corresponding control experiments (fungi untreated by ILs or AMB = 100% adhesion) (*, p < 0.05 and **, p < 0.01).
(§4) Post-adherence treatment with ILs was performed in a similar manner to that described previously by our team. Candida spp. suspensions were prepared by centrifuging YPD-grown cultures and resuspending fungal mass in PBS to an OD600 = 0.6. Sterile 96-well plates were inoculated with the prepared suspensions and incubated for 2 h at 37 °C to induce fungal adhesion. Afterwards, adherent cells were washed with PBS to remove planktonic cells and treated with ILs (concentrations equivalent to 1, 2 or 4 × MIC90 for each fungi) for 2 h at 37 °C. Then, each well was washed with PBS and adherent cells were fixed with 0.1% CV solution for 5 min, and washed with PBS. Cells were then treated with a solution of isopropanol 0.04 N HCL with 0.1% SDS to permeabilize adherent cells and release the CV dye. The absorbance of CV was measured at 590 nm (ASYS UVM 340 Biogenet). The percentage of cells that were removed was determined in comparison to adherent cells treated with PBS only (designated 100% adhesion).

[6] = system: C. parapsilosis; assay: as above; conditions: C. parapsilosis on polystyrene, 2 h treatment; highest concentration (4 × MIC)
Protocol: as §2, §3, §4

[7] = system: C. glabrata; assay: as above; conditions: C. glabrata on polystyrene, 2 h treatment; highest concentration (4 × MIC)
Protocol: as §2, §3, §4

[8] = system: C. albicans; assay: as above; conditions: C. albicans on polystyrene, 2 h treatment; highest concentration (4 × MIC)
Protocol: as §2, §3, §4

[9] = system: sheep erythroid PMs; assay: Hemolysis assay; conditions: AMB conc. 0.25 µM; sheep RBCs; 1% SDS = 100% hemolysis
Protocol: To examine any possible toxic effect towards animal cells, ILs were tested for their lytic activity on sheep erythroid PMs, in comparison to AMB (Table 3). For this part of study, higher concentrations were selected, corresponding to MFC values of tested fungi (12.5; 25 and 50 µM in case of ILs, and 0.25; 0.5 and 1 µM in case of AMB, Table 1). The compounds were ranked in terms of hemolytic activity as follows: 1a > 1b > 2a. IL with alkoxymethyl chain (2a) produced <5% hemolysis, regardless of the concentration used. Compounds with alkyl substituents (1a and 1b) were more hemolytic in 12.5 than in 25 µM concentrations, and in the highest concentration (50 µM), both compounds produced >10% and >5% hemolysis, respectively.
ILs were tested for hemolytic activity, as described previously. Briefly, 5 mL of fresh sheep blood was centrifuged (2000 rpm, 15 min), washed with PBS and resuspended in PBS to achieve hematocrit level of 50%. Red blood cells (RBCs) were treated with ILs (concentrations = 12.5, 25 and 50 µM) for 2 h at 37 °C. Afterwards, RBCs were centrifuged (2000 rpm, 5 min) and the absorbance of the supernatant was measured at 540 nm (ASYS UVM 340 Biogenet). The percentage of hemolysis was determined in comparison to the hemoglobin absorbance released by a 1% SDS solution (100% hemolysis).

[10] = system: C. krusei; assay: Plasma membrane permeabilization (propidium iodide staining); conditions: 2 h treatment at MIC90, PI staining, mean ± SD, n = 3
Protocol: (§5) We tested ILs for their activity in permeabilizing fungi plasma membranes (PMs), by treating cells with concentrations of ILs corresponding to their MIC90 values (Table 2).
(§6) The assessment of PM permeability was performed as described previously, with modifications. Briefly, 3 mL of Candida spp. cell suspensions (OD600 = 0.1) in PBS were mixed with ILs (concentrations equivalent to MIC90 against each fungi). Samples were incubated for 2 h at 37 °C, washed with PBS and stained with PI to the final dye concentration of 6 × 10^−6 M for 5 min. Then, cell suspensions were washed with PBS and observed under the Zeiss Axio Imager A2 microscope equipped with the Zeiss Axiocam 503 mono microscope camera and Zeiss HBO100 mercury lamp. The percentage of permeabilized cells was evaluated by counting PI positive cells out of one hundred in three independent repetitions for each experiment.

[11] = system: C. parapsilosis; assay: as above; conditions: 2 h treatment at MIC90, PI staining, mean ± SD, n = 3
Protocol: as §5, §6

[12] = system: C. glabrata; assay: as above; conditions: 2 h treatment at MIC90, PI staining, mean ± SD, n = 3
Protocol: as §5, §6

[13] = system: C. albicans; assay: as above; conditions: 2 h treatment at MIC90, PI staining, mean ± SD, n = 3
Protocol: as §5, §6

[14] = 120 h, replated on YPD agar, 5 days, read-out: Minimal fungicidal concentration (MFC)
[15] = ≥90% growth inhibition, 48 h, YPD, read-out: Minimal inhibitory concentration (MIC90)

Q: With `C[C@@H]1[C@H](O)[C@@H](C)/C=C/C=C/C=C/C=C/C=C/C=C/C=C/[C@H](O[C@@H]2O[C@H](C)[C@@H](O)[C@H](N)[C@@H]2O)C[C@@H]2O[C@](O)(C[C@@H](O)C[C@@H](O)[C@H](O)CC[C@@H](O)C[C@@H](O)CC(=O)O[C@H]1C)C[C@H](O)[C@H]2C(=O)O` [AMB, amphotericin B, reference compound] as the molecule, how does the MFC [1, 14] read?
A: Its MFC is 0.5 µM (≈ 0.462 µg/mL).

Q: What about the MIC90 [1, 15] of the same molecule?
A: The MIC90 was 0.25 µM (≈ 0.231 µg/mL).

Q: And the MFC [2, 14]?
A: The MFC was 0.5 µM (≈ 0.462 µg/mL).

Q: What about the MIC90 [2, 15] of the same molecule?
A: Its MIC90 is 0.25 µM (≈ 0.231 µg/mL).

Q: And the MFC [3, 14]?
A: The MFC was 0.5 µM (≈ 0.462 µg/mL).

Q: What about the MIC90 [3, 15] of the same molecule?
A: The MIC90 was 0.25 µM (≈ 0.231 µg/mL).

Q: What about the MFC [4, 14] of the same molecule?
A: Its MFC is 1 µM (≈ 0.924 µg/mL).

Q: And the MIC90 [4, 15]?
A: Its MIC90 is 0.5 µM (≈ 0.462 µg/mL).

Q: What about the Reduction of adhesion [5] of the same molecule?
A: The Reduction of adhesion was ~ 20%.

Q: And the Reduction of adhesion [6]?
A: The Reduction of adhesion was ~ 20%.

Q: What about the Reduction of adhesion [7] of the same molecule?
A: The Reduction of adhesion was ~ 15%.

Q: And the Reduction of adhesion [8]?
A: The Reduction of adhesion was ~ 27%.

Q: What about the Hemolytic activity [9] of the same molecule?
A: Its Hemolytic activity is 86.7 ± 0.43 %.

Q: And the “Percentage of cells with permeabilized PMs” value (“Percentage of cells” for short) [10]?
A: Its value is 38.2 ± 10.7 %.

Q: And the “Percentage of cells” value [11]?
A: The value was 32.38 ± 3.15 %.

Q: What about the “Percentage of cells” value [12] of the same molecule?
A: The value was 43.2 ± 2.15 %.

Q: What about the “Percentage of cells” value [13] of the same molecule?
A: The value was 37.3 ± 4.17 %.
